Among the data in PubChem BioAssay (NCI) are TGI and GI50 values, retold here.

Some test systems named below: HCT-116 colon; HCT-15 colon; HOP-92 NSCLC; K-562 leukemia; KM12 colon; SK-OV-3 ovarian; UACC-257 melanoma; MDA-MB-231 breast; PC-3 prostate; MCF7 breast.
Test in all cases: inhibition of tumour cell growth, NCI panel, 48 h

SMILES strings stand for the structures.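 48-hour exposure; five concentrations; linearly interpolated endpoints. Abbreviation: GI50, concentration required for 50% inhibition of growth. Definition used: TGI = concentration required for complete inhibition of growth.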 Where only a bound is given, the exact number is not on record here.

Take `N/C(=N\C(=S)N1CCCCC1)N1CCCCC1`: the TGI in the experiment with HCT-116 colon, with HCT-15 colon, with HOP-92 NSCLC, in the experiment on K-562 leukemia, with KM12 colon and in the experiment on SK-OV-3 ovarian was > 100 µM each time. Besides, the TGI in the experiment on UACC-257 melanoma is > 100 µM.

With `Oc1cccc(C2SCc3nc4ccccc4n32)c1` (stereo not drawn), the TGI in the experiment with HCT-116 colon, in the experiment on HOP-92 NSCLC, in the experiment on K-562 leukemia, with KM12 colon, with SK-OV-3 ovarian and in the experiment with UACC-257 melanoma was > 100 µM in each case.

Consider `Cc1ccc(NC2=C(Cl)C(=O)c3nc(C)ccc3C2=O)cc1`, for which the GI50 with HCT-116 colon was 1.32 µM; with HCT-15 colon, 0.694 µM; in the experiment on HOP-92 NSCLC, 1.4 µM; in the experiment with K-562 leukemia, 0.702 µM; with KM12 colon, 2.59 µM; with MDA-MB-231 breast, 1.41 µM. The GI50 in the experiment on PC-3 prostate is 1.19 µM; with SK-OV-3 ovarian, 11.9 µM; in the experiment with UACC-257 melanoma, 1.58 µM. Also, the TGI in the experiment on HCT-116 colon was 2.68 µM; in the experiment with HCT-15 colon, 2.32 µM; in the experiment with HOP-92 NSCLC it was 2.93 µM; with K-562 leukemia, > 100 µM; with KM12 colon, 12.1 µM; in the experiment on MDA-MB-231 breast, 2.96 µM. Also, the TGI in the experiment on PC-3 prostate stood at 2.78 µM; with SK-OV-3 ovarian, 24.6 µM; in the experiment with UACC-257 melanoma, 3 µM.

With `COc1ccc(-c2c(N)[n+]([O-])c3cc(C)c(C)cc3[n+]2[O-])cc1OC`, the TGI in the experiment on HCT-15 colon, in the experiment on K-562 leukemia, with KM12 colon, in the experiment with SK-OV-3 ovarian and with UACC-257 melanoma was > 100 µM in each case.

Turning to `O=C(O)C1Cc2nc[nH]c2CN1` (stereo not drawn), the TGI with HCT-116 colon, in the experiment on HCT-15 colon, in the experiment with HOP-92 NSCLC, in the experiment with K-562 leukemia, in the experiment with KM12 colon and in the experiment on SK-OV-3 ovarian was > 100 µM throughout. Further, in the experiment on UACC-257 melanoma, the TGI was > 100 µM.

On to `N#Cc1cccc(Nc2nccc(-c3cnn4ncccc34)n2)c1`, for which the GI50 is 0.00443 µM in the experiment on HCT-116 colon; 0.0071 µM in the experiment with HCT-15 colon; 0.00589 µM in the experiment on HOP-92 NSCLC; 0.00782 µM with K-562 leukemia; 0.00632 µM with KM12 colon; 0.00856 µM in the experiment on MCF7 breast. In addition, the GI50 is 0.00745 µM in the experiment on PC-3 prostate, 0.014 µM in the experiment on SK-OV-3 ovarian and 0.00594 µM in the experiment with UACC-257 melanoma. For the same molecule, the TGI in the experiment on HCT-116 colon was 1.34 µM; in the experiment with HCT-15 colon, > 25 µM; in the experiment on HOP-92 NSCLC, 0.0166 µM; in the experiment on K-562 leukemia, > 25 µM; in the experiment with KM12 colon, 0.0263 µM; in the experiment on MCF7 breast, > 25 µM. Besides, the TGI with PC-3 prostate is > 25 µM; in the experiment with SK-OV-3 ovarian, > 25 µM; in the experiment with UACC-257 melanoma, 0.0154 µM.

In the case of `COc1cc(C2C(C(=O)O)=C(C)Oc3cc4c(cc32)OCO4)cc(OC)c1OC` (stereo not drawn), the TGI in the experiment on HCT-116 colon was > 100 µM; with HCT-15 colon, > 100 µM; with HOP-92 NSCLC, > 100 µM; in the experiment with K-562 leukemia, > 100 µM; in the experiment with SK-OV-3 ovarian, 91.2 µM; with UACC-257 melanoma, > 100 µM.

Consider `Nc1nc(N)c(-c2ccccc2)c(C(=O)Nc2ccc(Cl)c(Cl)c2)n1`, for which the TGI in the experiment on HCT-116 colon, in the experiment on HCT-15 colon, in the experiment with HOP-92 NSCLC, in the experiment on K-562 leukemia, with KM12 colon and in the experiment with UACC-257 melanoma was > 100 µM throughout.

Turning to `COCCOC(C)C(/C=N/NC(N)=S)=N/NC(N)=S` (stereo not drawn), the GI50 with HCT-116 colon was 0.0189 µM; with HCT-15 colon, > 100 µM; in the experiment on HOP-92 NSCLC, > 100 µM; with K-562 leukemia, 0.0574 µM; with KM12 colon, > 100 µM; in the experiment on PC-3 prostate, 0.0574 µM. Besides, the GI50 in the experiment on SK-OV-3 ovarian was > 100 µM; in the experiment on UACC-257 melanoma it was 0.0232 µM. For the same molecule, the TGI in the experiment with HCT-116 colon, in the experiment with HCT-15 colon, with HOP-92 NSCLC, in the experiment with K-562 leukemia, with KM12 colon and in the experiment with PC-3 prostate was > 100 µM throughout. Besides, the TGI in the experiment with SK-OV-3 ovarian and with UACC-257 melanoma was > 100 µM each time.

In the case of `Fc1cccc(F)c1C1SCc2nc3ccccc3n21` (stereo not drawn), the TGI in the experiment on HCT-116 colon is > 100 µM; in the experiment with HCT-15 colon, > 100 µM; with HOP-92 NSCLC, 95.3 µM; with K-562 leukemia, > 100 µM; with KM12 colon, > 100 µM; in the experiment with SK-OV-3 ovarian, > 100 µM. Further, the TGI in the experiment with UACC-257 melanoma is > 100 µM.

As for `CC1CC2C3CC(F)C4=CC(=O)C=CC4(C)C3(F)C(O)CC2(C)C1(O)C(=O)CO` (stereo not drawn), the TGI in the experiment with HCT-116 colon, with HCT-15 colon, with HOP-92 NSCLC, in the experiment with K-562 leukemia, with KM12 colon and in the experiment on SK-OV-3 ovarian was > 100 µM throughout. Also, in the experiment on UACC-257 melanoma, the TGI is > 100 µM.

Consider `COc1cc2c(cc1OC)-c1c(cc(OC)c(OC)c1OC)C2=O`, for which the TGI in the experiment on HCT-116 colon, in the experiment on HCT-15 colon, in the experiment on HOP-92 NSCLC, with K-562 leukemia, with KM12 colon and in the experiment with SK-OV-3 ovarian was > 100 µM in each case. In addition, the TGI with UACC-257 melanoma was > 100 µM.

`COC(=O)C1CCc2c(OC)ccc(OC)c2C1=O` (stereo not drawn): the TGI with HCT-116 colon, in the experiment on HOP-92 NSCLC, in the experiment with K-562 leukemia, in the experiment on KM12 colon, in the experiment on SK-OV-3 ovarian and in the experiment with UACC-257 melanoma was > 100 µM throughout.

`Cc1cccc(NC(=O)CC2C(=O)Nc3ccccc3S2(=O)=O)c1C` (stereo not drawn): the TGI in the experiment on HCT-116 colon was 33.1 µM; in the experiment on HCT-15 colon, > 100 µM; in the experiment on HOP-92 NSCLC, 37.9 µM; with K-562 leukemia it was > 100 µM; in the experiment on KM12 colon, > 100 µM; with SK-OV-3 ovarian, 37.7 µM. Further, the TGI in the experiment on UACC-257 melanoma was > 100 µM.
